How the values were obtained:
Conditions in all cases: Compound concentration 1000.0 nM
[1] = biological target: Serine/threonine-protein kinase 35 (Homo sapiens) (UniProt Q8TDR2)
[2] = biological target: Cyclin-dependent kinase 13 (Homo sapiens) (UniProt Q14004)
[3] = biological target: Serine/threonine-protein kinase 38 (Homo sapiens) (UniProt Q15208)
[4] = biological target: Ephrin type-B receptor 1 (Homo sapiens) (UniProt P54762)
[5] = biological target: Aurora kinase C (Homo sapiens) (UniProt Q9UQB9)
[6] = biological target: Insulin receptor (Homo sapiens) (UniProt P06213)
[7] = biological target: Serine/threonine-protein kinase TNNI3K (Homo sapiens) (UniProt Q59H18)
[8] = system: Receptor-type tyrosine-protein kinase FLT3 (Homo sapiens), P36888 [N841I]
[9] = biological target: Death-associated protein kinase 3 (Homo sapiens) (UniProt O43293)
[10] = biological target: Serine/threonine-protein kinase TAO2 (Homo sapiens) (UniProt Q9UL54)
[11] = biological target: Mitogen-activated protein kinase 1 (Homo sapiens) (UniProt P28482)
[12] = biological target: Dual specificity mitogen-activated protein kinase kinase 7 (Homo sapiens) (UniProt O14733)
[13] = biological target: Tyrosine-protein kinase ABL2 (Homo sapiens) (UniProt P42684)
[14] = biological target: Mitogen-activated protein kinase 12 (Homo sapiens) (UniProt P53778)
[15] = biological target: Misshapen-like kinase 1 (Homo sapiens) (UniProt Q8N4C8)
[16] = biological target: Activin receptor type-2A (Homo sapiens) (UniProt P27037)
[17] = biological target: Dual specificity protein kinase CLK1 (Homo sapiens) (UniProt P49759)
[18] = biological target: Serine/threonine-protein kinase NLK (Homo sapiens) (UniProt Q9UBE8)
[19] = biological target: Cyclin-dependent kinase 9 (Homo sapiens) (UniProt P50750)
[20] = biological target: Serine/threonine-protein kinase WNK4 (Homo sapiens) (UniProt Q96J92)
[21] = biological target: TRAF2 and NCK-interacting protein kinase (Homo sapiens) (UniProt Q9UKE5)
[22] = biological target: Death-associated protein kinase 1 (Homo sapiens) (UniProt P53355)
[23] = biological target: Receptor-type tyrosine-protein kinase FLT3 (Homo sapiens) (UniProt P36888)
[24] = biological target: MAP kinase-activated protein kinase 5 (Homo sapiens) (UniProt Q8IW41)
[25] = biological target: Serine/threonine-protein kinase ULK3 (Homo sapiens) (UniProt Q6PHR2)
[26] = biological target: Serine/threonine-protein kinase WNK2 (Homo sapiens) (UniProt Q9Y3S1)
[27] = biological target: Tyrosine-protein kinase receptor UFO (Homo sapiens) (UniProt P30530)
[28] = biological target: Myosin light chain kinase family member 4 (Homo sapiens) (UniProt Q86YV6)
[29] = biological target: Serine/threonine-protein kinase 32C (Homo sapiens) (UniProt Q86UX6)
[30] = biological target: Homeodomain-interacting protein kinase 3 (Homo sapiens) (UniProt Q9H422)
[31] = biological target: Ephrin type-A receptor 3 (Homo sapiens) (UniProt P29320)
[32] = biological target: Cyclin-G-associated kinase (Homo sapiens) (UniProt O14976)
[33] = biological target: Serine/threonine-protein kinase PAK 1 (Homo sapiens) (UniProt Q13153)
[34] = biological target: Tyrosine-protein kinase BTK (Homo sapiens) (UniProt Q06187)
[35] = biological target: Tyrosine-protein kinase ZAP-70 (Homo sapiens) (UniProt P43403)
[36] = biological target: Calcium/calmodulin-dependent protein kinase kinase 2 (Homo sapiens) (UniProt Q96RR4)
[37] = biological target: Serine/threonine-protein kinase SBK1 (Homo sapiens) (UniProt Q52WX2)
[38] = biological target: Serine/threonine-protein kinase Nek7 (Homo sapiens) (UniProt Q8TDX7)
[39] = biological target: Calcium/calmodulin-dependent protein kinase type II subunit delta (Homo sapiens) (UniProt Q13557)
[40] = biological target: Serine/threonine-protein kinase RIO1 (Homo sapiens) (UniProt Q9BRS2)
[41] = biological target: Casein kinase II subunit alpha (Homo sapiens) (UniProt P68400)
[42] = system: eIF-2-alpha kinase GCN2 (Homo sapiens), Q9P2K8 [S808G]
[43] = biological target: Fibroblast growth factor receptor 3 (Homo sapiens) (UniProt P22607)
[44] = biological target: Calcium/calmodulin-dependent protein kinase type IV (Homo sapiens) (UniProt Q16566)
[45] = biological target: Serine/threonine-protein kinase 26 (Homo sapiens) (UniProt Q9P289)
[46] = biological target: Vascular endothelial growth factor receptor 2 (Homo sapiens) (UniProt P35968)

Measured: residual activity

Sequence of Death-associated protein kinase 1 (Homo sapiens) (P53355 whole entry, looked up): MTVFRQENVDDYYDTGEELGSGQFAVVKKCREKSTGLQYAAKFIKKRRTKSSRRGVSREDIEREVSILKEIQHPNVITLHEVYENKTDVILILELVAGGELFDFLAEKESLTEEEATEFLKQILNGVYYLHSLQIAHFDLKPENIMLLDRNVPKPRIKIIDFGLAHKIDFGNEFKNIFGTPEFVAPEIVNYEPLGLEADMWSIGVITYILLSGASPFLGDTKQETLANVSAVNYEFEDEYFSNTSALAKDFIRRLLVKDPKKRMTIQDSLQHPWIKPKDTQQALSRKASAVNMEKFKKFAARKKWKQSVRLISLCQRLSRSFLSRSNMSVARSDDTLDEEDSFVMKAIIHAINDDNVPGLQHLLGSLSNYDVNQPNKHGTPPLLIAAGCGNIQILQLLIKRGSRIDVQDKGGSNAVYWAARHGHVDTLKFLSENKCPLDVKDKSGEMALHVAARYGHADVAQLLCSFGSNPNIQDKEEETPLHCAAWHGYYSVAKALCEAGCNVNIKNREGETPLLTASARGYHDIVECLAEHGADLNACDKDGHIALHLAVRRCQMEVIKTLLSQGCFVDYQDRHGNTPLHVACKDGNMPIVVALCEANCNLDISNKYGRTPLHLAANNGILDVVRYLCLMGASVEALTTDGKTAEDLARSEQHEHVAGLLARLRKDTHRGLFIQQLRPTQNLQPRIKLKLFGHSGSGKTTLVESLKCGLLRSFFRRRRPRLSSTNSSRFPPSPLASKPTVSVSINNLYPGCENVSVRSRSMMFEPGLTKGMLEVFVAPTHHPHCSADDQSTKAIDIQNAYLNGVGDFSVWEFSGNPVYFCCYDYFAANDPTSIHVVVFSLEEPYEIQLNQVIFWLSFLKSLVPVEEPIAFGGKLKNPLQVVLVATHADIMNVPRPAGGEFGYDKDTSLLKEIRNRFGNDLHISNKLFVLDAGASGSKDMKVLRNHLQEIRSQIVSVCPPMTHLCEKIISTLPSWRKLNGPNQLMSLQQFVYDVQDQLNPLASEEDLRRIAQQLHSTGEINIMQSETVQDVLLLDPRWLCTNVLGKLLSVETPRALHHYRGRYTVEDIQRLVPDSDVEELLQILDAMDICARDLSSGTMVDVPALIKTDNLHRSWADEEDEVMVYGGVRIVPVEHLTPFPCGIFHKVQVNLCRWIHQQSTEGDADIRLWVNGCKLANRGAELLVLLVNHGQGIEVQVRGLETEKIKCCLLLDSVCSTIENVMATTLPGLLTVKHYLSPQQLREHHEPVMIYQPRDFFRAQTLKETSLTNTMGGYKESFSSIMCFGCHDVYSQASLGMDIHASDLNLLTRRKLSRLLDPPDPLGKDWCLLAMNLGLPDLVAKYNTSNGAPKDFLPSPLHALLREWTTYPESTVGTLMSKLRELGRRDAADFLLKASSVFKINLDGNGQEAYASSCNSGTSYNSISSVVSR
Sequence of Serine/threonine-protein kinase PAK 1 (Homo sapiens) (Q13153 whole entry): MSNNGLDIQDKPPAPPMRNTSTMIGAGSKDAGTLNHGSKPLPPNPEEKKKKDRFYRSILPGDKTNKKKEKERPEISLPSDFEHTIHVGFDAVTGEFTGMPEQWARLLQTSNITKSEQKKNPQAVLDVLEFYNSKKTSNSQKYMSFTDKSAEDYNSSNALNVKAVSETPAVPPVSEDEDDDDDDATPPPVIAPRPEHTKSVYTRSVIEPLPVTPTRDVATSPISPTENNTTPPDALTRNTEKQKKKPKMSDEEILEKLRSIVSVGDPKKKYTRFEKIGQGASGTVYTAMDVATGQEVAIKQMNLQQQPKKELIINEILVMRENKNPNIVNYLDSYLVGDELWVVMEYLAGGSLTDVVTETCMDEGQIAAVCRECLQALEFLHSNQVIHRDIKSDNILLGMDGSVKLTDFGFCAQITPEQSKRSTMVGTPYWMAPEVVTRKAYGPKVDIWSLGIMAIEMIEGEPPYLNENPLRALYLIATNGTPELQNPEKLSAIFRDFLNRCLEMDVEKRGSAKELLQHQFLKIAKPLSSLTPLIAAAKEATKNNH
Sequence of Serine/threonine-protein kinase WNK4 (Homo sapiens) (Q96J92 whole entry): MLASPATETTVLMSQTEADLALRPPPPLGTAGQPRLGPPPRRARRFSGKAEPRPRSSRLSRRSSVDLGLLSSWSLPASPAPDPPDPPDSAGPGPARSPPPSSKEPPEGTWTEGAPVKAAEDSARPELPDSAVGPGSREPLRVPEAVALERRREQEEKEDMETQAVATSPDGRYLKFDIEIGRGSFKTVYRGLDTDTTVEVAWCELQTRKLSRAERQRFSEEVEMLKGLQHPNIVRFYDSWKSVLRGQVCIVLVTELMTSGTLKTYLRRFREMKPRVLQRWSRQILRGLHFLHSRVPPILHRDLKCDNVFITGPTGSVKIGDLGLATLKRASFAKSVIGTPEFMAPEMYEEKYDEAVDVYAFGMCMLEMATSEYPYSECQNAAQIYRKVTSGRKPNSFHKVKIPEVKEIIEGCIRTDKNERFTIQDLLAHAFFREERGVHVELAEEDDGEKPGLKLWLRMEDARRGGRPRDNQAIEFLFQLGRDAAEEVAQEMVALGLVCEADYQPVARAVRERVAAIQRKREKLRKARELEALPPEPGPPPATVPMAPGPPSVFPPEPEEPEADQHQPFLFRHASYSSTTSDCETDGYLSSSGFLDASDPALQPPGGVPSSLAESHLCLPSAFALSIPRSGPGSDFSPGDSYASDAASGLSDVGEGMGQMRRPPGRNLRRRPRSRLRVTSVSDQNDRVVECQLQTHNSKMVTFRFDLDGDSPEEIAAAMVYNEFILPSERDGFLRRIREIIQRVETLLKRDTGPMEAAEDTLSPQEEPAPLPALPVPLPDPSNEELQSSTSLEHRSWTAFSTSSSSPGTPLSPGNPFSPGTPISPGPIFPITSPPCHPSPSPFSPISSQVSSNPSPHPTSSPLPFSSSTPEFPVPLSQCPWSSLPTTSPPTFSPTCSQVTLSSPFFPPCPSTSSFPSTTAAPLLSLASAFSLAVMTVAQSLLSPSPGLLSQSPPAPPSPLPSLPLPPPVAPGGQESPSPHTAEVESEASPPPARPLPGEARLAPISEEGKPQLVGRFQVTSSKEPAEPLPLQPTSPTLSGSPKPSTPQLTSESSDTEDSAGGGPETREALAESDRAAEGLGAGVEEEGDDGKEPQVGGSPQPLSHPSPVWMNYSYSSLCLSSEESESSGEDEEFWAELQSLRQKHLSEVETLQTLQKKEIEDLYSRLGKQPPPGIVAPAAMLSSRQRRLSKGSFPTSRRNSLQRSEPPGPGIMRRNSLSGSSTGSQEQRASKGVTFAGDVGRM
Sequence of MAP kinase-activated protein kinase 5 (Homo sapiens) (Q8IW41 whole entry): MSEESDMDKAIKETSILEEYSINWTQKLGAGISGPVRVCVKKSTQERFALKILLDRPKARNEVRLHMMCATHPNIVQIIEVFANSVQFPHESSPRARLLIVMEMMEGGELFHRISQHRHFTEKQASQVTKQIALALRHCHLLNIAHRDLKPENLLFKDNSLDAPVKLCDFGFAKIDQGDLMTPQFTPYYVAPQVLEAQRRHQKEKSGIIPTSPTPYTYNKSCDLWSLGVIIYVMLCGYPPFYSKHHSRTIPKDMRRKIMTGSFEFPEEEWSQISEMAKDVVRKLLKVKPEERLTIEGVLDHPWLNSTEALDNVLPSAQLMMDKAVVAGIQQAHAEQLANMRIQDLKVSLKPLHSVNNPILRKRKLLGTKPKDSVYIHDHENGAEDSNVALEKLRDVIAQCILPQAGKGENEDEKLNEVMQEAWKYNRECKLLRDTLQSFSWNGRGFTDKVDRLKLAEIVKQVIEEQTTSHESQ
Sequence of Calcium/calmodulin-dependent protein kinase kinase 2 (Homo sapiens) (Q96RR4 2-588 limits assumed): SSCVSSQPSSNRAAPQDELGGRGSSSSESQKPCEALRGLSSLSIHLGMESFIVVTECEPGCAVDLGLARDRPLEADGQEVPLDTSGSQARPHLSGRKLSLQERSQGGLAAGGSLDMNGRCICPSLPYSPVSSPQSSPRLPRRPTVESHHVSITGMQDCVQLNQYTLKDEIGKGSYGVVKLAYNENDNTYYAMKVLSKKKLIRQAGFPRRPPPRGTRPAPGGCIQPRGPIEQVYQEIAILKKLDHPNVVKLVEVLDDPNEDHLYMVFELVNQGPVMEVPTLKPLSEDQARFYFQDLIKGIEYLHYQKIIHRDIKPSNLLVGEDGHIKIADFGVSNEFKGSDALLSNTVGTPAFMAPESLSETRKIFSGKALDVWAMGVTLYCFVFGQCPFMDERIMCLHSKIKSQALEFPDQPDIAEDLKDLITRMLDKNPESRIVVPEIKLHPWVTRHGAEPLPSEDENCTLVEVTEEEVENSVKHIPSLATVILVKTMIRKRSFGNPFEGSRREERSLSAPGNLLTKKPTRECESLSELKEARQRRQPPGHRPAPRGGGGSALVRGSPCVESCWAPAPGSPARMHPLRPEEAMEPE
Sequence of Myosin light chain kinase family member 4 (Homo sapiens) (Q86YV6 whole entry): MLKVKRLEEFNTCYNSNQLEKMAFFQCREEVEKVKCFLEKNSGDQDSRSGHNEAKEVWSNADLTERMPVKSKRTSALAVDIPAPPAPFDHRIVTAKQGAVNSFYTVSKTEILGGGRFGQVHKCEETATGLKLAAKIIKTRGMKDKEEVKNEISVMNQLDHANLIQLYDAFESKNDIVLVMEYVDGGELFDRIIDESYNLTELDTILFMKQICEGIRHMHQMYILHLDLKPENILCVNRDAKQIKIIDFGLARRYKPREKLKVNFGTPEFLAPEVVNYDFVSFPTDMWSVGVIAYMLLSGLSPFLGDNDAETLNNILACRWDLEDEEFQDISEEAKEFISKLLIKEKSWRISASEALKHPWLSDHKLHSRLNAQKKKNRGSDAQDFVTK
Sequence of Cyclin-dependent kinase 9 (Homo sapiens) (P50750 whole entry): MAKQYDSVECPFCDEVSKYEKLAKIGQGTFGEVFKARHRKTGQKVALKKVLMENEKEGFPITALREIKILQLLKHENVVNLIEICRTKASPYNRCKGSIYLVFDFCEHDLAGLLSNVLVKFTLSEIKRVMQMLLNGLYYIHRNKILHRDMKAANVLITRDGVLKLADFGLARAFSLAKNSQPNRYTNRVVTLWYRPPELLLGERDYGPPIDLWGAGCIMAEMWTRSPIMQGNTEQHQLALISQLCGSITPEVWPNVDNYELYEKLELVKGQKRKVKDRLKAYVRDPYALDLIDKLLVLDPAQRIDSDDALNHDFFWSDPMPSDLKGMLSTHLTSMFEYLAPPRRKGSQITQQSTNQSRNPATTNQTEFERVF

CSc1cccnc1N1CCN(Cc2nc3ccccc3[nH]2)CC1 [A-769]
inactive: [1] 100% | [2] 85% | [3] 88% | [4] 99% | [5] 100% | [6] 85% | [7] 100% | [8] 100% | [9] 100% | [10] 95% | [11] 93% | [12] 92% | [13] 98% | [14] 98% | [15] 89% | [16] 69% | [17] 80% | [18] 100% | [19] 97% | [20] 91% | [21] 100% | [22] 100% | [23] 100% | [24] 84% | [25] 81% | [26] 100% | [27] 100% | [28] 100% | [29] 71% | [30] 96% | [31] 100% | [32] 99% | [33] 100% | [34] 79% | [35] 99% | [36] 100% | [37] 99% | [38] 100% | [39] 100% | [40] 100% | [41] 81% | [42] 100% | [43] 100% | [44] 100% | [45] 95% | [46] 89%

c1ccc(N2CCN(Cc3nc4ccccc4[nH]3)CC2)nc1 [ABT-724]
inactive: [1] 100% | [2] 100% | [3] 89% | [4] 100% | [5] 100% | [6] 100% | [7] 100% | [8] 100% | [9] 91% | [10] 83% | [11] 100% | [12] 100% | [13] 100% | [14] 74% | [15] 100% | [16] 100% | [17] 100% | [18] 100% | [19] 100% | [20] 100% | [21] 100% | [22] 100% | [23] 100% | [24] 100% | [25] 100% | [26] 100% | [27] 100% | [28] 97% | [29] 100% | [30] 100% | [31] 100% | [32] 100% | [33] 94% | [34] 96% | [35] 100% | [36] 91% | [37] 100% | [38] 100% | [39] 91% | [40] 86% | [41] 97% | [42] 65% | [43] 96% | [44] 88% | [45] 100% | [46] 100%
